The target in one experiment is T1, integrin GPIIb/IIIa (Homo sapiens, UniProt P05106+P08514).
T1 construct: Washed platelets were incubated with various elarofiban doses; host or cells: washed human platelets from PRP of healthy volunteers
Put plainly: Inhibition by elarofiban of platelet aggregation induced by collagen or CRP trimer SEQ ID 25. The experiment is classed as cell-based.

In another experiment the test system is human platelets. The experiment in a line: Human platelet aggregation assay (washed platelets, optical density 650 nm). The experiment is classed as cell-based. Conditions: for EC50 ± SEM, platelet aggregation: Table 3. On the procedure:
Human platelet-rich plasma (PRP) concentrate from healthy volunteers was purchased from Biological Specialties, Inc. (Colmar, Pa.). […] The PRP was centrifuged at 730 g for 15 min. The resulting platelet pellet was washed twice in CGS buffer (13 mM sodium citrate, 30 mM glucose, 120 mM NaCl, pH 6.5) containing 1 U/mL apyrase (grade V, Sigma-Aldrich) and resuspended in Tyrode's buffer (140 mM NaCl, 2.7 mM KCl, 12 mM NaHCO3, 0.76 mM Na2HPO4, 5.5 mM dextrose, 5.0 mM Hepes, 0.2% BSA, pH 7.4). The “washed” platelets were diluted to 3×10^8 platelets/mL and kept >45 min at 37° C. before use.
For the assay, 105 μL of washed platelets, 2 mM CaCl2 and […] of fibrinogen were added to a 96-well microtiter plate. Platelet aggregation was initiated by the addition of serial concentrations of native collagen fibrils (equine type I; 92% identity with human collagen sequence; Chrono-log Corp., Havertown, Pa.) or test peptides. Buffer was added to one set of control wells. The assay plate was stirred constantly and intermittently placed in a microplate reader (Softmax, Molecular Devices, Menlo Park, Calif.) to read optical density (650 nm) at 0 and 5 min after the addition of the compound solutions. Aggregation was calculated as the decrease in optical density between the time-0 and 5-min measurements and expressed as percent of aggregation.
Peptides were dissolved in PBS (pH 7) or water (final pH 5) to a concentration of 2 mg/mL. Some samples were heated in a water bath (70° C.) for 10 min, filtered through a 0.45-μm filter and incubated for 24 h or 7 days at 4° C.

Entries after “also recorded” stand apart in the source; their conditions may differ.

T1 sequence (P08514 32-887 limits assumed): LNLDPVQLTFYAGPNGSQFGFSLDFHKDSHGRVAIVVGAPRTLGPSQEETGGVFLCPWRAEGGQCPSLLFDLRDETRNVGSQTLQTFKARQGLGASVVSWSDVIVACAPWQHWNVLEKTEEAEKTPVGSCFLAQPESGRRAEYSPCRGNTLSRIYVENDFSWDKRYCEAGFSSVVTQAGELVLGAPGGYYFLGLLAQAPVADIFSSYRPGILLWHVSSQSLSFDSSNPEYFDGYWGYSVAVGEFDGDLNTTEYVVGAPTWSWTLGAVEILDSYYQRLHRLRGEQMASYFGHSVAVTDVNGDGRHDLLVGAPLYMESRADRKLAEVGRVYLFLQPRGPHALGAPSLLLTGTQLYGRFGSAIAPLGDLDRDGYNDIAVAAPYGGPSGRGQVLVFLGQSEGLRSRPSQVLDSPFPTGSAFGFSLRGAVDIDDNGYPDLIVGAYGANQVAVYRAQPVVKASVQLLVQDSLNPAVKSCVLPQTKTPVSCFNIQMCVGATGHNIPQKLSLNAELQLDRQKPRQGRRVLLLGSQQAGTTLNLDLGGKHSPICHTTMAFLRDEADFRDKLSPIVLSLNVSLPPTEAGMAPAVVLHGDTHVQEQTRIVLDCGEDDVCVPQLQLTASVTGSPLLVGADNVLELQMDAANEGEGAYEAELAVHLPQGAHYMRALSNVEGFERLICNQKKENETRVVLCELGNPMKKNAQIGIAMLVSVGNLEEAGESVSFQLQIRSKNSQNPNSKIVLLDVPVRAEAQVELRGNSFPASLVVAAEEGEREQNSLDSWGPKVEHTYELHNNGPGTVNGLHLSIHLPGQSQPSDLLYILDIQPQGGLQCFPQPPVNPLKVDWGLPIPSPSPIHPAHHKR
T1 sequence (P08514 891-1039 partner limits assumed): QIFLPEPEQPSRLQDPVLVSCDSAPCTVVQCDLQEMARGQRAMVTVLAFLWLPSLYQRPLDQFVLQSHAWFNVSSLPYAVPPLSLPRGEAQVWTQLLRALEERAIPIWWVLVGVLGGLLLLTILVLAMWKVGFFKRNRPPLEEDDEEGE
T1 sequence (P05106 27-788): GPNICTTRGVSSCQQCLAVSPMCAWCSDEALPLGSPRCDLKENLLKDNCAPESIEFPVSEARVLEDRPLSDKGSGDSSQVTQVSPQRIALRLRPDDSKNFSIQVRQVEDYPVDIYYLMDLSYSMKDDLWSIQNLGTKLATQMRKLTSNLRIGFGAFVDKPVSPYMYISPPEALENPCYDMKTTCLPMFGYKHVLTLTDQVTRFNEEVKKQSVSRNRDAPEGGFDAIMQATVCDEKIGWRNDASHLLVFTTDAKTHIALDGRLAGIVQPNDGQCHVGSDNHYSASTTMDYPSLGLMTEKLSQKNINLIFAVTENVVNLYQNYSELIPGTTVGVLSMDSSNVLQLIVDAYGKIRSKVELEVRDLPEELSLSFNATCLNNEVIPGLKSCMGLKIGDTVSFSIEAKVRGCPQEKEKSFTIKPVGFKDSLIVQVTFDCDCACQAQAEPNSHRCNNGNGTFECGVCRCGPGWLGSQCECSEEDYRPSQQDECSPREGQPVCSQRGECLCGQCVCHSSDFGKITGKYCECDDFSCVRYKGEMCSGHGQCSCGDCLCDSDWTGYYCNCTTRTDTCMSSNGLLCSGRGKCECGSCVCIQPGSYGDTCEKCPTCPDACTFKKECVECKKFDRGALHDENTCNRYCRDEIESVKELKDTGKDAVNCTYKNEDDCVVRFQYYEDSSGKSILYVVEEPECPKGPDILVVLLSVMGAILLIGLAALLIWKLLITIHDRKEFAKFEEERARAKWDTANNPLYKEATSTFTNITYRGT

Take `O=C(O)C[C@H](NC(=O)[C@@H]1CCCN(C(=O)CCC2CCNCC2)C1)c1cccnc1` [elarofiban]: the “Inhibition of platelet aggregation induced by the CRP trimer having SEQ ID 25” value at integrin GPIIb/IIIa (washed platelets incubated with 10, 100 and 1000 nM for 5 min before SEQ ID 25) is “dose-dependent inhibition”. Also, the “Inhibition of platelet aggregation induced by collagen” value at integrin GPIIb/IIIa (washed platelets incubated with 10, 100 and 1000 nM for 5 min before collagen) is reported as “dose-dependent inhibition”.
On to (Pro-Hyp-Gly)10 [SEQ ID 34], for which the “Stimulation of platelet aggregation (in words)” value with human platelets (Example 6, FIG. 1) was “not effective”. Also, in the experiment with human platelets (peptide in PBS, H + F, pH 7, incubation 24 h), the “EC50 ± SEM, platelet aggregation” value was “failed to aggregate platelets; also recorded: Not Active”.
Take Collagen: in the experiment on human platelets (Example 6, FIG. 1, Table 4), the “EC50 values (±SEM), platelet aggregation” value turned out to be 0.56 ± 0.09 µg/mL. The “EC50 ± SEM, platelet aggregation” value in the experiment with human platelets (native collagen fibrils (equine type I), no preparation conditions given) turned out to be 0.25 µg/mL.

Values taken from patent US8076294B2, “Collagen-related peptides and uses thereof” (Advanced Technologies and Regenerative Medicine, LLC., priority 2007, dated 2011).
